In US20260224595A1, “COMPOUNDS FOR THE TREATMENT OF MYOTONIC DYSTROPHY” (ETH ZURICH, priority 2022, published 2026):

Tested on: targetomes of let-7, miR-1, miR-9, miR-29, miR-30, miR-107 and miR-181
Test: RNA-Seq of miRNA targetomes in DM myoblasts and myotubes
Type: cell-based, human
Procedure: As described in Example 3, total RNA was isolated from DM-patient and healthy cells, and cDNA libraries were prepared for three conditions (healthy volunteer (HV); DM; DM+Compound II) for DM1 and DM2 backgrounds. The expression levels of predicted targetomes of miRNAs let-7, miR-1, miR-9, miR-29, miR-30, miR-107 and miR-181 were then compared, using miR-122 as well as more than 2,000 transcripts that are not predicted targets of any miRNA as negative controls. Three pair-wise comparisons were performed to measure: i) how a targetome varies between healthy and diseased cells (HV versus DM), ii) how a targetome responds to treatment with the inventive compounds (DM versus DM+Compound II) and, iii) how a Compound II-treated DM-targetome compares to that of a healthy signature. For each pair-wise comparison, the third dataset was used as a reference and the fold changes were calculated for each target transcript (e.g. DM1 vs. DM1+Compound II, with fold changes calculated relative to HV).
Primary myoblasts or myotubes derived from DM1 or DM2 patient samples and non-DM healthy control individuals were cultured for 90% confluence and then treated with 120 μM Compound II for 72 h. Myoblasts were harvested by trypsinization, and separately myotubes were isolated by a minimal trypsin treatment followed by gentle centrifugation to sediments to separate them from the remaining mono-nucleated cells. Cell pellets were washed with PBS and RNA isolation was performed with Trizol® by using the Dircet-zol™ RNA MiniPrep Plus Kit (ZYMO Research, Freiburg, Germany). Library preparation was performed using the TruSeq Stranded mRNA Kit (Illumina, San Diego, CA, USA) with the TruSeq RNA Single Index Set A (Illumina) according to the recommended procedure. Quality and size distribution of the generated libraries was validated using an Agilent 2100 bioanalyzer with high-sensitivity RNA chip (Agilent) and RNA yield was measured using the Qubit […] HS Assay Kit followed by pooling of the libraries in batches of 12 and sequencing of […] pooled library on an Nextseq 500/High Output Flow Cell Cartridge using a paired end, 2×76 reads, single index protocol.
RNA-Seq reads were mapped to the human genome (build GRCh38) using STAR (Dobin et al., (2013). STAR: ultrafast universal RNA-seq aligner. Bioinformatics 29, 15-21) with gene annotations from gencode (www.gencodegenes.org; version 40). Reads mapping uniquely to exons were counted for each gene using htseq-count (Anders et al., (2015). HTSeq—a Python framework to work with high-throughput sequencing data. Bioinformatics 31, 166-169) with the parameter -s reverse and -m intersection_strict. Expression levels were quantified as TPM (transcripts per million), by dividing read counts by the total exon length for each gene, and then normalising by the sum of all values in each sample and multiplying by one million. Fold changes were calculated between the average expression levels in three conditions: DMSO-treated healthy volunteer samples (HV), DMSO-treated DM patient samples (DM), and Compound II-treated DM patient samples (DM+Compound II). Genes with an average TPM>1 were considered in each of these three conditions. For myoblasts, three samples were included for all conditions. For myotubes, three samples were included for the HV, DM1 and DM2 conditions, but two Compound II-treated samples were excluded (one DM1 and one DM2) due to a very low read count (<500000 exonic reads), resulting in […] and two DM2+Compound II myotube samples being included in the analysis. Cumulative density functions of expression changes of miRNA target genes were plotted using custom python scripts.

With CC(=O)N(C)c1cccc(-c2ccc3nnc(C)n3n2)c1 [Compound II] the “shift of the targetomes of the miRNAs tested versus healthy volunteers” value (DM1 and DM2 cells, FIGS. 5B, 5D, 6B and 6D) was “levels comparable to those of healthy volunteers”, the “median suppression of the targetomes of let-7 and miRs -9, -1, -29, -30, -107, -181” value (DM1 myoblasts, 120 μM, 72 h, RNA-Seq) was 10-12% and the “CDF curves of DM1+Compound II versus HV targetome signature for miR-1, miR-9, miR-29, miR-30 and miR-107” value (DM1 myoblasts, FIG. 5B) was “indistinguishable overlay”. For the same compound, the “median suppression of the seven miRNA targetomes” value (DM1 myotubes, 120 μM, 72 h, RNA-Seq) was 12-15%, the “median suppression of the seven targetomes” value (DM2 myoblasts, 120 μM, 72 h, RNA-Seq) was 22-25% and the “targetome shift versus HV signature” value (DM2 myoblasts, FIG. 5D) was “overshoot”. For the same compound, the “median suppression of the seven miRNA targetomes” value (DM2 myotubes, 120 μM, 72 h, RNA-Seq) was 10-12%.
